In paper PMC12299576 (Viruses, 2025):
Like-named read-outs stand apart in the source and are kept apart here.

How the values were obtained:
HTNV-76118 strain [1] = test: microbe, parasite or virus in culture; type: cell-based, Hantaan virus (HTNV); conditions: Orthohantavirus hantanense, Vero C1008, read-out: EC50, 2H pretreatment
HTNV-76118 strain [2] = test: microbe, parasite or virus in culture; type: cell-based, Hantaan virus (HTNV); conditions: for EC50: Orthohantavirus hantanense, Vero C1008, read-out: EC50, Virucidal
HTNV-76118 strain [3] = test: microbe, parasite or virus in culture; type: cell-based, Hantaan virus (HTNV); conditions: Orthohantavirus hantanense, Vero C1008, read-out: EC50, Post entry
HTNV = type: cell-based, Hantaan virus (HTNV)
HTNV-76118 strain [4] = test: microbe, parasite or virus in culture; type: cell-based, Hantaan virus (HTNV); conditions: Orthohantavirus hantanense, Vero C1008, 120 h
in vitro = conditions: African green monkey

CC(C)CC(=O)c1c(O)c2c(c3c1OC1(O)C(C(=O)C(C)(C)C(=O)C1(C)C)C3C(C)C)OC1=C(C(=O)C(C)(C)C(=O)C1(C)C)C2CC(C)C (stereo not shown) [Callistemontrimer A, callistemontrimer A]
EC50 (HTNV-76118 strain [1]): > 50 µM
direct virucidal effect on HTNV (HTNV-76118 strain [2]): neither compound exhibited a direct virucidal effect
EC50 (HTNV-76118 strain [2]): > 50 µM
EC50 (HTNV-76118 strain [3]): 0.65 ± 0.45 µM
suppression of viral replication (HTNV nucleoprotein immunofluorescence) (HTNV): effectively suppressed viral replication
EC50 (HTNV-76118 strain [4]): 4.41 ± 3.4 µM
CC50 (in vitro): 32.1 ± 6 µM

CC(C)CC(=O)c1c(O)c2c(c3c1OC1(O)C(C(=O)C(C)(C)C(=O)C1(C)C)C3CC(C)C)OC1=C(C(=O)C(C)(C)C(=O)C1(C)C)C2CC(C)C (stereo not shown) [Callistemontrimer B, callistemontrimer B]
EC50 (HTNV-76118 strain [4]): 2.79 ± 1.4 µM
CC50 (in vitro): 16.9 ± 1 µM

CC(C)CC(=O)c1c(O)cc2c(c1O)C(CC(C)C)C1=C(O2)C(C)(C)C(=O)C(C)(C)C1=O (stereo not shown) [Rhodomyrtone, rhodomyrtone]
EC50 (HTNV-76118 strain [4]): 0.3 ± 0.03 µM
CC50 (in vitro): 5.11 ± 2.49 µM

CC(C)CC(=O)c1c(O)cc(O)c2c1OC1=C(C(=O)C(C)(C)C(=O)C1(C)C)C2CC(C)C (stereo not shown) [Rhodomyrtosone B, rhodomyrtosone B]
EC50 (HTNV-76118 strain [4]): 2.69 ± 0.32 µM
CC50 (in vitro): 7.44 ± 1.15 µM

NC(=O)c1ncn([C@@H]2O[C@H](CO)[C@@H](O)[C@H]2O)n1 [Ribavirin, ribavirin, reference compound]
EC50 (HTNV-76118 strain [1]): > 200 µM
direct virucidal effect on HTNV (HTNV-76118 strain [2]): neither compound exhibited a direct virucidal effect
EC50 (HTNV-76118 strain [2]): > 200 µM
EC50 (HTNV-76118 strain [3]): 13.2 ± 0.4 µM
EC50 (HTNV-76118 strain [4]): 20.5 ± 1.63 µM
CC50 (in vitro): > 200 µM
